US10081662B2, “Modified relaxin B chain peptides” (The Florey Institute of Neuroscience and Mental Health, priority 2014, dated 2018)

What was measured:
[1] = dose printed as 0.5 mg/mg/day; Samuel et al. 2003; cited from earlier work
[2] = system: mouse model of isoproterenol (ISO) induced cardiac fibrosis; assay: Mouse model of isoproterenol-induced cardiomyopathy (cardiac fibrosis); assay type: in vivo; conditions: 129SV mice, 14 days, s.c. minipump; relative to isoproterenol treatment
Description: (§1) Seven to eight-week old male 129SV mice (which are sensitive to tissue injury and fibrosis) and age-matched female Balb/c mice (which are sensitive to changes in airway hyperresponsiveness) were used for the induction of isoproterenol-induced cardiomyopathy and ovalbumin-induced chronic allergic airways disease, respectively. 16 five week-old male C57BL/6 mice were used in the induction of prostate cancer growth. All animals were obtained from Monash Animal Services (Monash University, Clayton, Victoria, Australia) and housed under standard conditions (maintained on an 12 h light-12 h dark lighting cycle with free access to food and water) in the Department of Pharmacology Animal Room at Monash University.
(§2) The mid zone of the male mouse heart and largest lung lobe from female Balb/c mice were fixed in 10% neutral buffered formalin for 24-48 h before being processed and embedded routinely in paraffin wax. Representative sections of tissue, 3-5 um each, were taken and stained with either picrosirius red (Samuel et al. 2011 Lab Invest 91, 675-690) for the detection of interstitial collagen or Masson's trichrome (Royce et al, 2009, Endocrinology 150, 2692-2699) for the detection of subepithelial basement membrane collagen deposition).
(§3) Changes in picrosirius-red stained interstitial collagen or epithelial thickness and subepithelial collagen (fibrosis) around the airway lumen from Masson's trichrome-stained sections; which were all captured (at ×20 magnification) using a SPOT digital camera (Q Imaging, Burnaby, BC, Canada) and analysed with Image J 1.3 software (National Institutes of Health, Bethesda, Md.). Four to five fields per mid zone of the heart or 4-5 airways (of 150-350 μm in diameter) per mouse were assessed. Epithelial thickness and subepithelial collagen regions were traced with a digital pen and the thickness of each region calculated by the imaging software. Results were expressed as mean thickness ([…]) of the 4-5 airways sampled.
The apical region of the heart or second largest lung lobe from each mouse was treated as described previously (Samuel C S, et at., 2003, FASEB J 17, 121-123; Royce et at. 2009, Endocrinology 150, 2692-2699) for the determination of hydroxyproline content. Hydroxyproline values were estimated based on a standard curve constructed with serial dilutions of a 0.1 mg/mL stock of trans-4-hydroxyproline-L-proline (Sigma-Aldrich). Hydroxyproline values were then converted to collagen content as detailed previously (Samuel CS, et al. 2004. Endocrinology 145, 4125-4133) and, in turn, divided by the dry weight of each corresponding left ventricular or lung tissue assessed to yield collagen concentration (a measure of fibrosis). […]

[3] = system: mouse model of OVA-induced chronic allergic airway disease; assay: Mouse model of OVA-induced chronic allergic airway disease; assay type: in vivo; conditions: Balb/c mice
Description: as §1
Twenty-four hours after the last vehicle/drug administration, methacholine-induced airway reactivity was assessed by invasive plethysmography as described before (Locke et al. 2007, Am J Respir Mol Biol 36, 625-632; Royce et al. 2009, Endocrinology 150, 2692-2699). Mice were anaesthetized intraperitoneally with 200 μg/g ketamine and 10 μg/g xylazine. Tracheotomy was performed using an 18-gauge tracheotomy tube and jugular vein cannulated with a 0.61 9 0.28 mm polyethylene tube (Microtube Extrusions, North Rocks, NSW, Australia), Mice were then placed in a plethysmograph chamber (Buxco Research Systems, Wilmington, N.C., USA) where increasing concentrations of acetyl-β-methacholine (from 31.25 μg/kg to 500 μg/kg) were delivered intravenously in five doses. After every dose, airway resistance and compliance were measured (Biosystem XA version 2.7.9; Buxco Electronics Inc, Wilmington, N.C., USA). The change in airway resistance calculated by the maximal resistance after each dose minus baseline resistance (phosphate buffered saline alone) was plotted against each dose of methacholine evaluated.
as §2, §3
The apical region of the heart or second largest lung lobe from each mouse was treated as described previously (Samuel C S, et at., 2003, FASEB J 17, 121-123; Royce et at. 2009, Endocrinology 150, 2692-2699) for the determination of hydroxyproline content. Hydroxyproline values were estimated based on a standard curve constructed with serial dilutions of a 0.1 mg/mL stock of trans-4-hydroxyproline-L-proline (Sigma-Aldrich). Hydroxyproline values were then converted to collagen content as detailed previously (Samuel CS, et al. 2004. Endocrinology 145, 4125-4133) and, in turn, divided by the dry weight of each corresponding left ventricular or lung tissue assessed to yield collagen concentration (a measure of fibrosis).
The inventors also tested the fibrosis preventing activity of B7-33 C11.23S in a model of chronic allergic airway disease (AAD). […]

[4] = system: RM1 mouse prostate tumour cells; assay: Prostate tumour growth after injection of RM1 cells into prostates of C57BL/6 mice; assay type: in vivo; conditions: day 10 after RM1 cells, s.c. mini-pump from day 2, H2 relaxin 0.15, B7-33 C11.23S 0.075 mg/kg/day, vs untreated
Description: as §1
H2 relaxin can induce prostate and other tumour growth. To measure the effect of B7-33 C11.23S on tumour growth, 16 five week-old male C57BL/6 mice (obtained from Monash Animal Services) were injected with 5000 RM1 (mouse prostate tumor) cells into their prostates to induce tumor growth. One sub-group of mice n=5) was left untreated until day 10 post-RM1 cell administration. […]

[5] = Solubility of relaxin B chain peptides in aqueous solution; conditions: aqueous solution
[6] = system: rat model of myocardial infarction; assay: Rat model of myocardial infarction-induced heart failure; assay type: in vivo; conditions: vs vehicle
Procedure: Adult male Sprague-Dawley rats weighing 250-320 g were obtained from Animal Resources Centre, Perth, Wash., Australia. The rats were group housed in a constant temperature of 22±1° C. and a relative humidity of 50-60% under a controlled light-dark cycle of 12 hours. Rats were given access to standard laboratory rat chow and drinking water ad libitum.
Heart failure was induced as previously described (Ruchaya et al., 2014, Exp Physiol 99, 111-122). Breifly, to induce heart failure, rats were anaesthetised with an intramuscular injection of ketamine (60 mg/kg) and medetomide hydrochloride ([…]). A left sided thoracotomy through an opening between the fourth and fifth rib was performed, the heart was exteriorised and the left anterior descending coronary artery was ligated. Anaesthesia was reversed with antipamezole hydrocholide (1 mg/kg). Penicillin (1000 U) and buprenorphine (0.05 mg/kg) was administered to aid post-operative recovery. Animals were left to recover from the surgery under a heating source. Rats were individually housed after the surgery.
Eight weeks after myocardial infarction surgery, rats were randomly assigned to 3 groups (vehicle, H2 and B7-33), re-anaesthetised (2-3% isoflurane) and an osmotic mini-pump (model 2ML4, Alzet, Cupertino, Calif.) implanted intraperitoneally. Vehicle (saline), native H2 relaxin (0.5 mg/kg/day) or B7-33 C11.23S (0.5 mg/kg/day) was continuously administered for 28 days. At the conclusion of treatment, rats were anaesthetized (sodium pentobarbitone, 60 mg/kg i.p.) and the left ventricular end-diastolic pressure determined prior to decapitation and removal of the heart for histological analysis.

H2 relaxin: Native human relaxin-2: heterodimer of A chain (24 residues) and B1-29 B chain with three disulfide bonds
Circulating levels [1]: 20 to 40 ng/mL
Percentage of interstitial collagen in the left ventricle (picrosirius red) [2]: significantly reduced
Total left ventricular collagen concentration (hydroxyproline analysis) [2]: significantly reduced
Airway hyper-responsiveness (change in airway resistance to methacholine) ([3]; OVA-induced increase, invasive plethysmography, FIG. 8D): attenuated
Mean airway epithelial thickness ([3]; compared to OVA treatment, FIG. 8B): significantly reduced
Total lung collagen content (hydroxyproline analysis) ([3]; relative to OVA treatment, FIG. 8C): normalised
Prostate tumour size [4]: significantly increased tumour size
Aqueous solubility (in words) [5]: very soluble
Percentage of collagen in the interstitial area of the left ventricle ([6]; 0.5 mg/kg/day i.p. mini-pump for 28 days from 8 weeks after MI): significant reduction
Left ventricular end-diastolic pressure (LVEDP) ([6]; 12 weeks after myocardial infarction): reduced
